Values of other authors in publication PMC10928227, “Assessing biologic/toxicologic effects of extractables from plastic contact materials for advanced therapy manufacturing using cell painting assay and cytotoxicity screening” (Scientific Reports, 2024).
Read-outs that look alike come from different tables or passages of the source.

Columns and labels:
[1] = cited from earlier work; for DNA damage and repair, Single Cell Gel Electrophoresis (comet) Assay: ref Yu F. Sasaki et. al., 2000, Critical Reviews in Toxicology,30(6),Pp.629-799
[2] = cited from earlier work
[3] = Database Genotoxicity & Carcinogenicity ECVAM, ref EURL ECVAM genotoxicity and carcinogencity database, Madia F et al, 2020
[4] = in Vivo, Database Genotoxicity & Carcinogenicity ECVAM, ref EURL ECVAM genotoxicity and carcinogencity database, Madia F et al, 2020
[5] = in Vivo, Database Genotoxicity OASIS
[6] = in Vitro, Chinese hamster, Chinese Hamster Lung (CHL), Duration 6÷18 h, Database Genotoxicity OASIS, ref Sofuni, T., Ed. (1998). Data Book of Chromosomal Aberration Test In Vitro, Revised Edition
[7] = in Vitro, Database Genotoxicity & Carcinogenicity ECVAM, ref EURL ECVAM genotoxicity and carcinogencity database, Madia F et al, 2020

In the case of Nc1ccccc1 [62-53-3], the “Chromosome aberration, in Vivo Mammalian Chromosome Aberration Test” value [1, 3] is listed as “Positive”, the “Chromosome aberration, Micronucleus Assay” value [1, 4] is listed as “Positive” and the “DNA damage and repair, COMET or Alkaline Elution” value [1, 4] is listed as “Positive”. The “Chromosome aberration, Micronucleus Assay” value ([1]; in Vivo, Database Genotoxicity OASIS, ref RESS, NB. et. al., MUTAT. RES. 521(1-2):201-208, 2002) was “Positive”, the “DNA damage and repair, Single Cell Gel Electrophoresis (comet) Assay” value [1, 5] was “Positive” and the “Genetic Toxicity, Genotoxicity” value ([2]; Mammalian cell line, test guideline not reported, scale Gene mutation I, ref Database: Food TOX Hazard EFSA) was “Positive”. For the same molecule, the “Gene mutation, Bacterial Reverse Mutation Assay (e.g. Ames Test)” value (“Gene mutation … (e.g. Ames Test)” for short) ([2]; Salmonella typhimurium, Strain TA 97, in Vitro, Database: Bacterial mutagenicity ISSSTY, ref CCRIS database,Toxnet databases (Romualdo Benigni)) was “Negative”, the “Gene mutation … (e.g. Ames Test)” value ([2]; Salmonella typhimurium, Strain TA 98(NR), in Vitro, Database: Bacterial mutagenicity ISSSTY, ref CCRIS database,Toxnet databases (Romualdo Benigni)) was “Negative” and the “Gene mutation … (e.g. Ames Test)” value ([2]; Salmonella typhimurium, Strain TA 98, in Vitro, Database: Bacterial mutagenicity ISSSTY, ref CCRIS database,Toxnet databases (Romualdo Benigni)) was “Negative”. The “Gene mutation … (e.g. Ames Test)” value ([2]; Salmonella typhimurium, Strain TA 98, in Vitro, Database: Genotoxicity OASIS, ref Mutation Research, 168 (1986) 69-240, U.S. Environmental Protection Agency) was “Negative”, the “Gene mutation … (e.g. Ames Test)” value ([2]; Salmonella typhimurium, Strain TA 98, in Vitro, Database: Genotoxicity OASIS, ref P&G) was “Negative” and the “Gene mutation … (e.g. Ames Test)” value ([2]; Salmonella typhimurium, Strain TA 100, in Vitro, Database: Bacterial mutagenicity ISSSTY, ref CCRIS database,Toxnet databases (Romualdo Benigni)) was “Negative”. For the same molecule, the “Gene mutation … (e.g. Ames Test)” value ([2]; Salmonella typhimurium, Strain TA 100, in Vitro, Database: Genotoxicity OASIS, ref Mutation Research, 168 (1986) 69-240, U.S. Environmental Protection Agency) was “Negative”, the “Gene mutation … (e.g. Ames Test)” value ([2]; Salmonella typhimurium, Strain TA 100, in Vitro, Database: Genotoxicity OASIS, ref P&G) was “Negative” and the “Gene mutation … (e.g. Ames Test)” value ([2]; Salmonella typhimurium, Strain TA 102, in Vitro, Database: Bacterial mutagenicity ISSSTY, ref CCRIS database,Toxnet databases (Romualdo Benigni)) was “Negative”. For the same molecule, the “Gene mutation … (e.g. Ames Test)” value ([2]; Salmonella typhimurium, Strain TA 1535, in Vitro, Database: Bacterial mutagenicity ISSSTY, ref CCRIS database,Toxnet databases (Romualdo Benigni)) was “Negative”, the “Gene mutation … (e.g. Ames Test)” value ([2]; Salmonella typhimurium, Strain TA 1535, in Vitro, Database: Genotoxicity OASIS, ref Mutation Research, 168 (1986) 69-240, U.S. Environmental Protection Agency) was “Negative” and the “Gene mutation … (e.g. Ames Test)” value ([2]; Salmonella typhimurium, Strain TA 1535, in Vitro, Database: Genotoxicity OASIS, ref P&G) was “Negative”. The “Gene mutation … (e.g. Ames Test)” value ([2]; Salmonella typhimurium, Strain TA 1537, in Vitro, Database: Bacterial mutagenicity ISSSTY, ref CCRIS database,Toxnet databases (Romualdo Benigni)) was “Negative”, the “Gene mutation … (e.g. Ames Test)” value ([2]; Salmonella typhimurium, Strain TA 1537, in Vitro, Database: Genotoxicity OASIS, ref Mutation Research, 168 (1986) 69-240, U.S. Environmental Protection Agency) was “Negative” and the “Gene mutation … (e.g. Ames Test)” value ([2]; Salmonella typhimurium, Strain TA 1537, in Vitro, Database: Genotoxicity OASIS, ref P&G) was “Negative”. For the same molecule, the “Gene mutation … (e.g. Ames Test)” value ([2]; Salmonella typhimurium, Strain TA 1538, in Vitro, Database: Bacterial mutagenicity ISSSTY, ref CCRIS database,Toxnet databases (Romualdo Benigni)) was “Negative”, the “Chromosome aberration, in Vitro Mammalian Chromosome Aberration Test” value [2, 6] was “Positive” and the “Chromosome aberration, Micronucleus Assay” value [2, 7] was “Positive”. The “Chromosome aberration, in Vitro Mammalian Chromosome Aberration Test” value [2, 7] was “Positive”, the “Gene mutation, Mammalian Cell Gene Mutation (MLA HPRT)” value [2, 7] was “Positive” and the “Gene mutation … (e.g. Ames Test)” value ([2]; in Vitro, Salmonella typhimurium and Escherichia Coli, Database Genotoxicity & Carcinogenicity ECVAM, ref EURL ECVAM genotoxicity and carcinogencity database, Madia F et al, 2020) was “Negative”. For the same molecule, the “Gene mutation … (e.g. Ames Test)” value ([2]; in Vitro, Salmonella typhimurium, Strain TA 97, Database Genotoxicity OASIS, ref P&G) was “Negative”, the “Gene mutation … (e.g. Ames Test)” value ([2]; in Vitro, Salmonella typhimurium, Strain TA 98, Database Genotoxicity OASIS, ref Mutation Research, 168 (1986) 69-240, U.S. Environmental Protection Agency) was “Negative” and the “Gene mutation … (e.g. Ames Test)” value ([2]; in Vitro, Salmonella typhimurium, Strain TA 98, Database Genotoxicity OASIS, ref P&G) was “Negative”. The “Gene mutation … (e.g. Ames Test)” value ([2]; in Vitro, Salmonella typhimurium, Strain TA 100, Database Genotoxicity OASIS, ref P&G) was “Negative”, the “Gene mutation … (e.g. Ames Test)” value ([2]; in Vitro, Salmonella typhimurium, Strain TA 102, OECD Guideline 471, Database Genotoxicity OASIS, ref CCRIS database,Toxnet databases) was “Negative” and the “Gene mutation … (e.g. Ames Test)” value ([2]; in Vitro, Salmonella typhimurium, Strain TA 1535, Database Genotoxicity OASIS, ref P&G) was “Negative”. The “Gene mutation … (e.g. Ames Test)” value ([2]; in Vitro, Salmonella typhimurium, Strain TA 1537, Database Genotoxicity OASIS, ref Mutation Research, 168 (1986) 69-240, U.S. Environmental Protection Agency) was “Negative”, the “Gene mutation … (e.g. Ames Test)” value ([2]; in Vitro, Salmonella typhimurium, Strain TA 1537, Database Genotoxicity OASIS, ref P&G) was “Negative” and the “Gene mutation … (e.g. Ames Test)” value ([2]; in Vitro, Salmonella typhimurium, Strain TA 1538, Database Genotoxicity OASIS, ref P&G) was “Negative”. For the same molecule, the “Genetic Toxicity, unscheduled DNA synthesis (UDS in Vitro)” value ([2]; in Vitro, scale Mutagenicity I (ECVAM), ref EURL ECVAM genotoxicity and carcinogencity database, Madia F et al, 2020) was “Negative”.
In the case of Cc1cc(C(C)(C)C)c(O)c(C(C)(C)C)c1 [128-37-0], the “Chromosome aberration, in Vivo Mammalian Chromosome Aberration Test” value [1, 3] is given as “Negative”, the “Chromosome aberration, Micronucleus Assay” value [1, 4] is given as “Negative” and the “DNA damage and repair, COMET or Alkaline Elution” value [1, 4] is given as “Positive”. The “DNA damage and repair, DNA Adducts” value [1, 4] was “Negative”, the “Chromosome aberration, Micronucleus Assay” value ([1]; in Vivo, Database Genotoxicity OASIS, ref Bruce, W. R., & Heddle, J. A. (1979), Can. J. Genet. Cytol. 21, 319-334) was “Negative” and the “DNA damage and repair, Single Cell Gel Electrophoresis (comet) Assay” value [1, 5] was “Negative”. The “Chromosome aberration, in Vitro Mammalian Chromosome Aberration Test” value [2, 6] was “Negative”, the “Chromosome aberration, in Vitro Mammalian Chromosome Aberration Test” value ([2]; in Vitro, Chinese hamster, Chinese Hamster Lung (CHL), Duration 24÷48 h, Database Genotoxicity OASIS, ref Sofuni, T., Ed. (1998). Data Book of Chromosomal Aberration Test In Vitro, Revised Edition) was “Negative” and the “Chromosome aberration, in Vitro Mammalian Chromosome Aberration Test” value [2, 7] was “Equivocal”. For the same molecule, the “Gene mutation, Mammalian Cell Gene Mutation (MLA HPRT)” value [2, 7] was “Positive”, the “Chromosome aberration, in Vitro Mammalian Chromosome Aberration Test” value ([2]; in Vitro, No Strain Information, Database Genotoxicity OASIS, ref Mutation Research 584 (2005) 1-256, Kirkland et al.) was “Negative” and the “Gene mutation, Mammalian Cell Gene Mutation Assay” value ([2]; in Vitro, T-lymphoma Cell Lines, Database Genotoxicity OASIS, ref Mutation Research 584 (2005) 1-256, Kirkland et al.) was “Positive”.
